Experiment [1] has as its target μ-opioid receptors (Homo sapiens (Human), UniProt P35372). Description: μ-opioid receptor [35S]GTPγS functional assay, U-2 OS cells. The settings on record: μ GTP; for EC50: read-out: Activity Response μ EC50 (nM) [mean ± SEM]; for Emax: relative to DAMGO, read-out: Activity Response μ Emax (%). The format is biochemical. The protocol: [^35S]GTPγS functional assays were conducted using freshly thawed μ-receptor membranes prepared from a cell line expressing recombinant μ opioid receptor in a HEK-293, CHO or U-2 OS cell background or purchased from a commercial source (Perkin Elmer, Shelton, Conn.; or DiscovRx, Fremont, Calif.). Assay reactions were prepared by sequentially adding the following reagents to binding buffer (100 mM NaCl, 10 mM MgCl2, 20 mM HEPES, pH 7.4) on ice (final concentrations indicated): membrane protein (0.026 mg/mL), saponin ([…]), GDP ([…]) and [^35S]GTPγS (0.20 nM; Perkin Elmer, Shelton, Conn.). The prepared membrane solution (190 μl/well) was transferred to 96-shallow well polypropylene plates containing 10 μl of 20× concentrated stock solutions of the agonist [D-Ala^2, N-methyl-Phe^4 Gly-ol^5]-enkephalin (DAMGO) prepared in dimethyl sulfoxide (DMSO). Plates were incubated for 30 min at about 25° C. with shaking. Reactions were terminated by rapid filtration onto 96-well Unifilter GF/B filter plates (Perkin Elmer, Shelton, Conn.) using a 96-well tissue harvester (Perkin Elmer, Shelton, Conn.) followed by three filtration washes with 200 μl of ice-cold wash buffer (10 mM NaH2PO4, 10 mM Na2HPO4, pH 7.4). Filter plates were subsequently dried at 50° C. for 2-3 hours. BetaScint scintillation cocktail (Perkin Elmer, Shelton, Conn.) was added (50 μl/well) and plates were counted using a Packard Top-Count for 1 min/well. Data were analyzed using the sigmoidal dose-response curve fitting functions in GraphPad PRISM v. 3.0, or an in-house function for non-linear, sigmoidal dose-response curve-fitting.
μ GTP EC50 is the concentration of a compound providing 50% of the maximal response for the compound at a μ-opioid receptor.
μ GTP Emax (%) is the maximal effect elicited by a compound relative to the effect elicited by DAMGO, a standard μ agonist. Generally, the μ GTP Emax (%) value measures the efficacy of a compound to treat or prevent pain or other Conditions.
The following tables provide results on the efficacy of binding and activity response of exemplified Compounds of the Invention at the μ- and κ-opioid receptors. In TABLE 3, binding affinity of certain Compounds of the Invention to the μ- and κ-opioid receptors was determined as described above. In TABLE 4, activity response of certain Compounds of the Invention to the μ- and κ-opioid receptors was determined as described above for functional assays using HEK-293 cells. In TABLE 5, activity response of certain Compounds of the Invention to the μ- and κ-opioid receptors was determined as described above using U-2 OS cells.
(In general: Binding of GTPγS marks nucleotide exchange on a G protein.)

Experiment [2] addresses κ opioid receptor (Homo sapiens (Human), UniProt P41145). As to the kind of experiment: κ-opioid receptor [35S]GTPγS functional assay, U-2 OS cells. The settings on record: κ GTP; for EC50: read-out: Activity Response κ EC50 (nM) [mean ± SEM]; for Emax: relative to U69,593, read-out: Activity Response κ Emax (%). The format is biochemical. How it is done: Membranes from HEK-293 cells, CHO or U-2 OS cells expressing the recombinant human kappa opioid receptor (κ) were prepared by lysing cells in ice cold hypotonic buffer (2.5 mM MgCl2, 50 mM HEPES, pH 7.4) (10 mL/10 cm dish) followed by homogenization with a tissue grinder/Teflon pestle. Membranes were collected by centrifugation at 30,000×g for 15 min at 4° C. and pellets were resuspended in hypotonic buffer to a final concentration of 1-3 mg/mL. Protein concentrations were determined using the BioRad protein assay reagent with bovine serum albumen as standard. Aliquots of κ receptor membranes were stored at −80° C.
Functional [^35S]GTPγS binding assays were conducted as follows. κ opioid receptor membrane solution was prepared by sequentially adding final concentrations of 0.026 μg/μl κ membrane protein (in-house), 10 μg/mL saponin, 3 μM GDP and 0.20 nM [^35S]GTPγS to binding buffer (100 mM NaCl, 10 mM MgCl2, 20 mM HEPES, pH 7.4) on ice. The prepared membrane solution (190 μl/well) was transferred to 96-shallow well polypropylene plates containing 10 μl of 20× concentrated stock solutions of agonist prepared in DMSO. Plates were incubated for 30 min at a temperature of about 25° C. with shaking. Reactions were terminated by rapid filtration onto 96-well Unifilter GF/B filter plates (Perkin Elmer, Shelton, Conn.) using a 96-well tissue harvester (Packard) and followed by three filtration washes with 200 μl ice-cold binding buffer (10 mM NaH2PO4, 10 mM Na2HPO4, pH 7.4). Filter plates were subsequently dried at 50° C. for 2-3 hours. Fifty μl/well scintillation cocktail (Perkin Elmer, Shelton, Conn.) was added and plates were counted in a Packard Top-Count for 1 min/well.
κ GTP EC50 is the concentration of a compound providing 50% of the maximal response for the compound at a κ receptor.
κ GTP Emax (%) is the maximal effect elicited by a compound relative to the effect elicited by U69,593.
In TABLE 3, binding affinity of certain Compounds of the Invention to the μ- and κ-opioid receptors was determined as described above. In TABLE 4, activity response of certain Compounds of the Invention to the μ- and κ-opioid receptors was determined as described above for functional assays using HEK-293 cells. In TABLE 5, activity response of certain Compounds of the Invention to the μ- and κ-opioid receptors was determined as described above using U-2 OS cells.

SMILES strings stand for the structures.

Broadly, the EC50 is the concentration that produces a half-maximal response. The Emax is the size of the effect at its maximum, as opposed to the concentration needed. On to `O=C(N[C@H]1C[C@@]2(O)[C@H]3Cc4ccc(O)cc4[C@@]2(CCN3CC2CC2)CC1=O)c1ccccc1` [Compound 36, N-((4bR,7S,8aS,9R)-11-(cyclopropylmethyl)-3,8a-dihydroxy-6-oxo-6,7,8,8a,9,10-hexahydro-5H-9,4b-(epiminoethano)phenanthren-7-yl)benzamide], for which, in experiment [1], the EC50 was determined as 12.7 ± 2.92 nM and the Emax is 20.3 ± 0.33%. In addition, in experiment [2], the EC50 came out at 4.28 ± 0.6 nM and the Emax came to 99 ± 4.73%.
In the case of `CC[C@H](C)C(=O)N[C@H]1C[C@@]2(O)[C@H]3Cc4ccc(O)cc4[C@@]2(CCN3CC2CC2)CC1=O` [Compound 37, (S)-N-((4bR,7S,8aS,9R)-11-(cyclopropylmethyl)-3,8a-dihydroxy-6-oxo-6,7,8,8a,9,10-hexahydro-5H-9,4b-(epiminoethano)phenanthren-7-yl)-2-methylbutanamide], in experiment [1], the EC50 was more than 200000 nM and the Emax was 6 ± 1.53%. Further, in experiment [2], the EC50 stood at 42.1 ± 7.56 nM and the Emax was 71.3 ± 5.7%.
Turning to `O=C(N[C@H]1C[C@@]2(O)[C@H]3Cc4ccc(O)cc4[C@@]2(CCN3CC2CC2)CC1=O)C1CCCCC1` [Compound 38, N-((4bR,7S,8aS,9R)-11-(cyclopropylmethyl)-3,8a-dihydroxy-6-oxo-6,7,8,8a,9,10-hexahydro-5H-9,4b-(epiminoethano)phenanthren-7-yl)cyclohexanecarboxamide], in experiment [1], the EC50 turned out to be 10.3 ± 1.72 nM and the Emax is 40.3 ± 1.45%. Besides, in experiment [2], the EC50 was found to be 2.3 ± 0.25 nM and the Emax turned out to be 95.3 ± 5.21%.
On to `COc1ccc2c(c1)[C@]13CCN(C)[C@H](C2)[C@]1(O)C[C@H](CCOCc1ccccc1)C(=O)C3` [Compound 50, (4bR,7S,8aS,9R)-7-(2-(benzyloxy)ethyl)-8a-hydroxy-3-methoxy-11-methyl-8,8a,9,10-tetrahydro-5H-9,4b-(epiminoethano)phenanthren-6(7H)-one], for which, in experiment [1], the EC50 amounted to 148 ± 10.4 nM and the maximum response (Emax) worked out at 102 ± 1.67%. Also, in experiment [2], the EC50 is 7900 ± 707 nM and the Emax came out at 74 ± 5.29%.
For `O=C1C[C@]23CCN(CC4CC4)[C@H](Cc4ccc(OCc5ccccc5)cc42)[C@]3(O)C[C@@H]1CCO` [Compound 58, (4bR,7S,8aS,9R)-3-(benzyloxy)-11-(cyclopropylmethyl)-8a-hydroxy-7-(2-hydroxyethyl)-8,8a,9,10-tetrahydro-5H-9,4b-(epiminoethano)phenanthren-6(7H)-one], the EC50 turned out to be 787 ± 242 nM in experiment [1] and 839 ± 9.9 nM in experiment [2]. The Emax turned out to be 43.7 ± 3.93% in experiment [1] and 96 ± 6.35% in experiment [2].
As to `CCOC(=O)C[C@H]1C[C@@]2(O)[C@H]3Cc4ccc(OC)cc4[C@@]2(CCN3C)CC1=O` [Compound 59, ethyl 2-((4bR,7R,8aS,9R)-8a-hydroxy-3-methoxy-11-methyl-6-oxo-6,7,8,8a,9,10-hexahydro-5H-9,4b-(epiminoethano)phenanthren-7-yl)acetate], in experiment [1], the EC50 was found to be 11500 ± 903 nM and the Emax worked out at 100 ± 4.62%. In experiment [2], the EC50 was more than 200000 nM and the Emax is 59 ± 1.53%.
In the same order, the values of `CN1CC[C@]23CC(=O)[C@@H](CC(=O)O)C[C@@]2(O)[C@H]1Cc1ccc(O)cc13` [Compound 61, 2-((4bR,7R,8aS,9R)-3,8a-dihydroxy-11-methyl-6-oxo-6,7,8,8a,9,10-hexahydro-5H-9,4b-(epiminoethano)phenanthren-7-yl)acetic acid] are 466 ± 81 nM, 77.3 ± 2.03%, 963 ± 83 nM and 90 ± 10%.
In the same order, the values of `COc1ccc2c(c1)[C@]13CCN(CC4CC4)[C@H](C2)[C@]1(O)C/C(=C\CC(C)C)C(=O)C3` [Compound 62, (4bR,8aS,9R,E)-11-(cyclopropylmethyl)-8a-hydroxy-3-methoxy-7-(3-methylbutylidene)-8,8a,9,10-tetrahydro-5H-9,4b-(epiminoethano)phenanthren-6(7H)-one] are more than 200000 nM, 27.5%, 3070 ± 233 nM and 62.7 ± 4.37%.
As for `O=C1C[C@]23CCN(CC4CC4)[C@H](Cc4ccc(O)cc42)[C@]3(O)C[C@@H]1CC1CCCC1` [Compound 65, (4bR,7S,8aS,9R)-7-(cyclopentylmethyl)-11-(cyclopropylmethyl)-3,8a-dihydroxy-8,8a,9,10-tetrahydro-5H-9,4b-(epiminoethano)phenanthren-6(7H)-one], in experiment [1], the EC50 is more than 200000 nM and the Emax is 4%. In addition, in experiment [2], the EC50 stood at 2.57 ± 0.24 nM and the Emax was 101 ± 5.51%.
In the case of `CCC(C)C[C@H]1C[C@@]2(O)[C@H]3Cc4ccc(O)cc4[C@@]2(CCN3CC2CC2)CC1=O` (stereo partly drawn) [Compound 66, (4bR,7S,8aS,9R)-11-(cyclopropylmethyl)-3,8a-dihydroxy-7-(2-methylbutyl)-8,8a,9,10-tetrahydro-5H-9,4b-(epiminoethano)phenanthren-6(7H)-one], in experiment [1], the half-maximal effective concentration (EC50) is more than 200000 nM and the Emax turned out to be 2.5%. In addition, in experiment [2], the EC50 was found to be 7.57 ± 1.14 nM and the Emax came to 102 ± 1.33%.
In the case of `CCCC[C@H]1C[C@@]2(O)[C@H]3Cc4ccc(O)cc4[C@@]2(CCN3CC2CC2)CC1=O` [Compound 67, (4bR,7S,8aS,9R)-7-butyl-11-(cyclopropylmethyl)-3,8a-dihydroxy-8,8a,9,10-tetrahydro-5H-9,4b-(epiminoethano)phenanthren-6(7H)-one], in experiment [1], the EC50 was more than 200000 nM and the Emax was found to be 2%. In experiment [2], the EC50 is 3 ± 0.12 nM and the Emax was determined as 101 ± 1.73%.
On to `CC(C)(C)C[C@H]1C[C@@]2(O)[C@H]3Cc4ccc(O)cc4[C@@]2(CCN3CC2CC2)CC1=O` [Compound 68, (4bR,7S,8aS,9R)-11-(cyclopropylmethyl)-3,8a-dihydroxy-7-neopentyl-8,8a,9,10-tetrahydro-5H-9,4b-(epiminoethano)phenanthren-6(7H)-one], for which the EC50 was more than 200000 nM in experiment [1] and 20.5 ± 0.4 nM in experiment [2]. The Emax in experiment [1] was 3%; in experiment [2] it was 69 ± 3.21%.
`CC(C)C[C@H]1C[C@@]2(O)[C@H]3Cc4ccc(O)cc4[C@@]2(CCN3CC2CC2)CC1=O` [Compound 69, (4bR,7S,8aS,9R)-11-(cyclopropylmethyl)-3,8a-dihydroxy-7-isobutyl-8,8a,9,10-tetrahydro-5H-9,4b-(epiminoethano)phenanthren-6(7H)-one]: in experiment [1], the EC50 was more than 200000 nM and the Emax was 2%. Also, in experiment [2], the EC50 worked out at 9.52 ± 1.41 nM and the Emax stood at 95.2 ± 1.89%.

The values above are taken from patent US9388162B2, “Substituted morphinans and the use thereof” (Purdue Pharma L.P., priority 2012, dated 2016).
